Experimental data published in US6222035A, “[1,2,4] triazolo [1,5-C] pyrimidine derivatives” (Kyowa Hakko Kogyo Co., Ltd., priority 1997, dated 2001).
Structures can show the parent of a compound that is named as a salt.

What was measured:
[1] = system: CGS 21680-induced catalepsy in mice; test: Activity on CGS 21680-induced Catalepsy; type: in vivo, mouse (male ddY); settings: 10 mg/kg oral; for Total score (catalepsy): 10 animals, maximum 50 points, control 48; for Number of Animals showing remission: catalepsy score 4 points or less in 10 cases; for inhibition in vivo at 10 mg/kg: Mus musculus, CGS 21680-induced catalepsy, read-out: Remission ratio (%)
Method: Activity on CGS 21680-induced Catalepsy
Parkinson's disease is motor deficit based on the degeneration and cell death of the nigrostriatal dopaminergic neuron. […] [Journal of Neuroscience, 16: 605 (1996)]. Accordingly, it is considered that adenosine A2A receptor agonists positively regulate the output of the striopallidal GABAergic neurons and, as a result, catalepsy is induced by the administration of CGS 21680.
This test was carried out using 10 animals per group of male ddY mice of 5 week age (22 to 25 g in body weight, Japan SLC). CGS 21680 (manufactured by RBI) was dissolved in a physiological saline (manufactured by Otsuka Pharmaceutical), and 10 μg/20 μl of the solution was injected into mouse intracerebro-ventricle. Test compounds were used by suspending them in distilled water containing 0.3% of polyoxyethylene(20)sorbitan monooleate (hereinafter referred to as "Tween 80") (manufactured by Otsuka Pharmaceutical). […] One hour after the administration of the test compound, only forelimbs or only hindlimbs of each animal were laid on a vertically arranged stand made of acryl, having a size of 4.5 cm in height and 1.0 cm in width, to measure catalepsy symptoms. All of the compounds were administered orally in a dose of 10 mg/kg.
The effect was judged by total catalepsy scores of 10 animals in one group (the maximum is 50 points). When the total score was 40 points or less, the activity of drugs was judged positive. The number of animals showing remission of catalepsy was expressed by the number of cases in which the catalepsy score was 4 points or less in 10 cases. The catalepsy remission ratio was expressed as the percentage of the total score in the test compound-administered group to the total score in the control group.

adenosine A2A receptor = target: T1, adenosine A2A receptor (Rattus norvegicus, UniProt P30543); test: Adenosine receptor binding activity (adenosine A2A receptor binding test), 3H-CGS 21680 binding; settings: 2 h, read-out: A2A receptor inhibition ratio (%); for inhibition at 0.1 µM: 10^-7 M; for inhibition at 0.01 µM: 10^-8 M
T1 construct: from tissue; host or cells: rat corpus striatum, washed membrane suspension
T1 sequence (P30543 whole entry): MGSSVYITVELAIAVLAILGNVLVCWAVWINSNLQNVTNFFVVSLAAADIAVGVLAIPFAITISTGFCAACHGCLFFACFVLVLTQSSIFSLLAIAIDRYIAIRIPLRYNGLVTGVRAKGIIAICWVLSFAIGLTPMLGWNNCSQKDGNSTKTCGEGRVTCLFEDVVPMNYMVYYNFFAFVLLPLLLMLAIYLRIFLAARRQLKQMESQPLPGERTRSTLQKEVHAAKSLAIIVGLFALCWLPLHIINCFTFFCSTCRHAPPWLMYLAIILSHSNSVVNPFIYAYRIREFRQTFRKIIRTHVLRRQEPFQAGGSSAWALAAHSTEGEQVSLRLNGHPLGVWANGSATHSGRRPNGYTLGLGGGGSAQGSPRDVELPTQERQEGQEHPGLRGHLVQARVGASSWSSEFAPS
Method: Adenosine receptor binding activity (adenosine A2A receptor binding test) This test was carried out by slightly modifying the method of Bruns et al. [Molecular Pharmacology, 29: 331 (1986)].
Corpus striatum of a rat was suspended in an ice-cooled 50 mM tris(hydroxymethyl)aminomethane hydrochloride (hereinafter referred to as "Tris-HCl") buffer (pH 7.7) using Polytron Homogenizer (manufactured by Kinematica Co.). The suspension was centrifuged (50,000×g, 10 minutes), and the obtained precipitate was re-suspended in the same amount of 50 mM Tris-HCl buffer. The suspension was centrifuged under the same conditions, and the final precipitate was suspended in 50 mM Tris-HCl [containing 10 mM magnesium chloride and 0.02 unit/mg tissue of adenosine deaminase (manufactured by Sigma Co.)] to give a tissue concentration of 5 mg (wet weight)/ml.
To 1 ml of the tissue suspension thus prepared were added 50 μl of tritium-labeled CGS 21680 {^3 H-2-[p-(2-carboxyethyl)phenethylamino]-5'-N-ethylcarboxamido)adenosine: 40 Ci/mmol; manufactured by New England Nuclear Co.[The Journal of Pharmacology and Experimental Therapeutics, 251: 888 (1989)]} (final concentration:4.0 nM) and 50 μl of a test compound. The resulting mixture was allowed to stand for 120 minutes at 25° C., and then rapidly filtered by suction through a glass fiber filter (GF/C, manufactured by Whatman Co.) The filter was immediately washed three times with […] of an ice-cooled 50 mM Tris-HCl buffer, and transferred to a vial, a scintillator (EX-H , manufactured by Wako Pure Chemical Industries, Ltd.) was added thereto, and the radioactivity on the filter was determined with a liquid scintillation counter (manufactured by Packard Instrument Co.) […]
The inhibition ratio of the test compound against the A2A receptor binding (^3 H-CGS 21680 binding) was calculated by the following equation:
Inhibition ratio (%)={1-(Amount of the binding in the presence of the test compound-Amount of the nonspecific binding)/(Amount of the total binding-Amount of the nonspecific binding)}×100
(Note) Amount of the total binding means the amount of radioactivity of ^3 H-CGS 21680 bound in the absence of the test compound. Amount of the nonspecific binding means the amount of radioactivity of ^3 H-CGS 21680 bound in the presence of 100 μM cyclopentyladenosine (CPA, manufactured by Sigma Co.) Amount of the binding in the presence of the test compound means the amount of radioactivity of ^3 H-CGS 21680 bound in the presence of the test compound at various levels of concentrations.

SMILES: CC(O)CN1CCN(c2cc3nc(-c4ccco4)nn3c(N)n2)CC1 (racemic) [Compound 105, (±)-5-Amino-2-(2-furyl)-7-(4-(2-hydroxypropyl)piperazinyl)[1,2,4]triazolo[1,5-c]pyrimidine]
- Total score (catalepsy) [1]: 4
- Number of Animals showing remission [1]: 10
- inhibition in vivo at 10 mg/kg [1]: 92%
- inhibition at 0.1 µM (adenosine A2A receptor): 41%

SMILES: CC(CO)N1CCN(c2cc3nc(-c4ccco4)nn3c(N)n2)CC1 (racemic) [Compound 111, (±)-5-Amino-2-(2-furyl)-7-(4-((2-hydroxy-1-methyl)ethyl)piperazinyl)[1,2,4]triazolo[1,5-c]pyrimidine]
- inhibition at 0.1 µM (adenosine A2A receptor): 52%

SMILES: COc1ccc(CNc2nc(Sc3ccccc3)cc3nc(-c4ccco4)nn23)cc1OC [Compound 10, 5-(3,4-Dimethoxybenzylamino)-2-(2-furyl)-7-phenylthio[1,2,4]triazolo[1,5-c]pyrimidine]
- inhibition at 0.1 µM (adenosine A2A receptor): 54%
- inhibition at 0.01 µM (adenosine A2A receptor): 16%

SMILES: COc1cc(OC)cc(Oc2cc3nc(-c4ccco4)nn3c(N)n2)c1 [Compound 33, 5-Amino-7-(3,5-dimethoxyphenoxy)-2-(2-furyl)[1,2,4]triazolo[1,5-c]pyrimidine]
- inhibition at 0.1 µM (adenosine A2A receptor): 86%
- inhibition at 0.01 µM (adenosine A2A receptor): 46%

SMILES: Nc1nc(Oc2ccc(Cl)cc2)cc2nc(-c3ccco3)nn12 [Compound 35, 5-Amino-7-(4-chlorophenoxy)-2-(2-furyl)[1,2,4]triazolo[1,5-c]pyrimidine]
- Total score (catalepsy) [1]: 15
- Number of Animals showing remission [1]: 8
- inhibition in vivo at 10 mg/kg [1]: 66%
- inhibition at 0.1 µM (adenosine A2A receptor): 82%
- inhibition at 0.01 µM (adenosine A2A receptor): 43%

SMILES: Nc1nc(N2CCN(Cc3ccc4c(c3)OCO4)CC2)cc2nc(-c3ccco3)nn12 [Compound 66, 5-Amino-2-(2-furyl)-7-(4-piperonylpiperazinyl)[1,2,4]triazolo[1,5-c]pyrimidine]
- inhibition at 0.1 µM (adenosine A2A receptor): 79%
- inhibition at 0.01 µM (adenosine A2A receptor): 20%

SMILES: COc1ccc(CN2CCN(c3cc4nc(-c5ccco5)nn4c(N)n3)CC2)cc1OC [Compound 67, 5-Amino-7-[4-(3,4-dimethoxybenzyl)piperazinyl]-2-(2-furyl)[1,2,4]triazolo[1,5-c]pyrimidine]
- inhibition at 0.1 µM (adenosine A2A receptor): 77%
- inhibition at 0.01 µM (adenosine A2A receptor): 39%

SMILES: Nc1nc(N2CCN(Cc3ccccc3Cl)CC2)cc2nc(-c3ccco3)nn12 [Compound 68, 5-Amino-7-[4-(2-chlorobenzyl)piperazinyl]-2-(2-furyl)[1,2,4]triazolo[1,5-c]pyrimidine]
- inhibition at 0.1 µM (adenosine A2A receptor): 90%
- inhibition at 0.01 µM (adenosine A2A receptor): 59%

SMILES: Nc1nc(N2CCN(Cc3cccc(Cl)c3)CC2)cc2nc(-c3ccco3)nn12 [Compound 69, 5-Amino-7-[4-(3-chlorobenzyl)piperazinyl]-2-(2-furyl)[1,2,4]triazolo[1,5-c]pyrimidine]
- inhibition at 0.1 µM (adenosine A2A receptor): 62%
- inhibition at 0.01 µM (adenosine A2A receptor): 44%

SMILES: Nc1nc(N2CCN(Cc3cccnc3)CC2)cc2nc(-c3ccco3)nn12 [Compound 70, 5-Amino-2-(2-furyl)-7-[4-(3-picolyl)piperazinyl][1,2,4]triazolo[1,5-c]pyrimidine]
- inhibition at 0.1 µM (adenosine A2A receptor): 66%
- inhibition at 0.01 µM (adenosine A2A receptor): 17%

SMILES: Nc1nc(N2CCN(Cc3ccncc3)CC2)cc2nc(-c3ccco3)nn12 [Compound 71, 5-Amino-2-(2-furyl)-7-[4-(4-picolyl)piperazinyl][1,2,4]triazolo[1,5-c]pyrimidine]
- inhibition at 0.1 µM (adenosine A2A receptor): 73%
- inhibition at 0.01 µM (adenosine A2A receptor): 29%

SMILES: Nc1nc(N2CCN(CC3CCCCC3)CC2)cc2nc(-c3ccco3)nn12 [Compound 72, 5-Amino-7-(4-cyclohexylmethylpiperazinyl)-2-(2-furyl)[1,2,4]triazolo[1,5-c]pyrimidine]
- inhibition at 0.1 µM (adenosine A2A receptor): 66%
- inhibition at 0.01 µM (adenosine A2A receptor): 10%

SMILES: CC(c1ccccc1)N1CCN(c2cc3nc(-c4ccco4)nn3c(N)n2)CC1 (centres unmarked) [Compound 73, 5-Amino-2-(2-furyl)-7-[4-(1-phenylethyl)piperazinyl][1,2,4]triazolo[1,5-c]pyrimidine]
- inhibition at 0.1 µM (adenosine A2A receptor): 86%
- inhibition at 0.01 µM (adenosine A2A receptor): 51%

SMILES: COc1ccc(OC)c(CN2CCN(c3cc4nc(-c5ccco5)nn4c(N)n3)CC2)c1 [Compound 75, 5-Amino-7-((2,5-dimethoxybenzyl)piperazinyl)-2-(2-furyl)[1,2,4]triazolo[1,5-c]pyrimidine]
- Total score (catalepsy) [1]: 10
- Number of Animals showing remission [1]: 9
- inhibition in vivo at 10 mg/kg [1]: 76%
- inhibition at 0.1 µM (adenosine A2A receptor): 84%

SMILES: COc1cc(CN2CCN(c3cc4nc(-c5ccco5)nn4c(N)n3)CC2)cc(OC)c1 [Compound 76, 5-Amino-7-(4-(3,5-dimethoxybenzyl)piperazinyl)-2-(2-furyl)[1,2,4]triazolo[1,5-c]pyrimidine]
- Total score (catalepsy) [1]: 11
- Number of Animals showing remission [1]: 10
- inhibition in vivo at 10 mg/kg [1]: 76%
- inhibition at 0.1 µM (adenosine A2A receptor): 73%

SMILES: COc1ccc(CCN2CCN(c3cc4nc(-c5ccco5)nn4c(N)n3)CC2)cc1OC [Compound 85, 5-Amino-7-(4-(2-(3,4-dimethoxyphenyl)ethyl)piperazinyl)-2-(2-furyl)[1,2,4]triazolo[1,5-c]pyrimidine]
- inhibition at 0.1 µM (adenosine A2A receptor): 80%

SMILES: Nc1nc(N2CCN(c3nc4ccccc4o3)CC2)cc2nc(-c3ccco3)nn12 [Compound 94, 5-Amino-7-(4-(2-benzoxazolyl)piperazinyl)-2-(2-furyl)[1,2,4]triazolo[1,5-c]pyrimidine]
- inhibition at 0.1 µM (adenosine A2A receptor): 37%

SMILES: Nc1nc(N2CCN(CCCOCc3ccccc3)CC2)cc2nc(-c3ccco3)nn12 [Compound 102, 5-Amino-7-(4-(3-benzyloxypropyl)piperazinyl)-2-(2-furyl)[1,2,4]triazolo[1,5-c]pyrimidine hydrochloride]
- inhibition at 0.1 µM (adenosine A2A receptor): 72%

SMILES: COCCN1[C@H](C)CN(c2cc3nc(-c4ccco4)nn3c(N)n2)C[C@@H]1C [Compound 117, 5-Amino-7-(cis-3,5-dimethyl-4-(2-methoxyethyl)piperazinyl)-2-(2-furyl)[1,2,4]triazolo[1,5-c]pyrimidine]
- inhibition at 0.1 µM (adenosine A2A receptor): 38%

SMILES: C[C@@H]1CN(c2cc3nc(-c4ccco4)nn3c(N)n2)C[C@H](C)N1CCCc1ccccc1 [Compound 119, 5-Amino-7-(cis-3,5-dimethyl-4-(3-phenylpropyl)piperazinyl)-2-(2-furyl)[1,2,4]triazolo[1,5-c]pyrimidine]
- inhibition at 0.1 µM (adenosine A2A receptor): 51%

SMILES: Nc1nc(SCc2ccccn2)cc2nc(-c3ccco3)nn12 [Compound 182, 5-Amino-2-(2-furyl)-7-(2-picolylthio)[1,2,4]triazolo[1,5-c]pyrimidine]
- inhibition at 0.1 µM (adenosine A2A receptor): 82%

SMILES: Nc1nc(SCc2ccccc2)cc2nc(-c3ccco3)nn12 [Compound 183, 5-Amino-7-benzylthio-2-(2-furyl)[1,2,4]triazolo[1,5-c]pyrimidine]
- inhibition at 0.1 µM (adenosine A2A receptor): 82%

SMILES: Cc1ccc(CSc2cc3nc(-c4ccco4)nn3c(N)n2)cc1 [Compound 186, 5-Amino-2-(2-furyl)-7-(4-methylbenzylthio)[1,2,4]triazolo[1,5-c]pyrimidine]
- inhibition at 0.1 µM (adenosine A2A receptor): 52%

SMILES: Nc1nc(SCc2ccccc2[N+](=O)[O-])cc2nc(-c3ccco3)nn12 [Compound 194, 5-Amino-2-(2-furyl)-7-(2-nitrobenzylthio)[1,2,4]triazolo[1,5-c]pyrimidine]
- inhibition at 0.1 µM (adenosine A2A receptor): 75%

SMILES: Nc1nc(Oc2ccc(Br)cc2)cc2nc(-c3ccco3)nn12 [Compound 228]
- Total score (catalepsy) [1]: 14
- Number of Animals showing remission [1]: 8
- inhibition in vivo at 10 mg/kg [1]: 72%
